The values that follow come from US20100254951A1, “Nerve Regeneration Promoting Agent” (MOCHIDA PHARMACEUTICAL CO., LTD., priority 2005, published 2010).

Experiment [1] concerns neural stem cells and cells differentiated from neural stem cells. Nature of the experiment: Effect on apoptosis of neural stem cells and cells differentiated from neural stem cells (pycnotic cells by PI staining, TUNEL). The class given is cell-based, rat. The following applies: cultivated under differentiation induction for 7 days; n=6; P=0.01 vs control. On the procedure: In the same way as Experimental Example 1, neural stem cells were divided into DHA group and control (DHA free) group and cultivated under culture conditions for differentiation induction for 7 days, and pycnotic cells were evaluated by PI staining.
Apoptosis in the pycnotic cells were confirmed by TUNEL staining. The TUNEL staining was performed using Red In Situ Apoptosis Detection kit (Chemicon). Cells of the DHA group and the control group were cultivated for 7 days under the above-mentioned differentiation conditions and fixed with 4% paraformaldehyde, followed by incubation together with digoxigenin-dUTP in the presence of TdT at 37° C. for 1 hour. TUNEL-labeled cells were detected with Rhodamine conjugated anti-digoxigenin antibody and observed using confocal scanning laser microscopy.

In experiment [2] the test system is adult rat hippocampal dentate gyrus. Nature of the experiment: Effect on neurogenesis in adult rat hippocampal dentate gyrus region (BrdU-NeuN double positive cells). The class given is in vivo. The following applies: 300 mg/kg/day gavaged for 7 weeks. The procedure:
18-week-old Wister male rats fed with a fish oil-free diet for three generations were used. To DHA group, 4,7,10,13,16,19-docosahexaenoate suspended in a 5% gum arabic solution was gavaged at 300 mg/kg/day every day for 7 weeks. To control group, in the same way as above, only a 5% gum arabic solution was gavaged in the same dose. From 2 weeks after initiation of oral administration, BrdU dissolved in PBS (−) was injected to rats intraperitoneally once a day for 5 days (50 mg/kg).
4 weeks after completion of BrdU administration, PBS (−) was perfused from the hearts of the rats, followed by fixation with 4% paraformaldehyde. The brains were isolated and fixed with paraformaldehyde for further 24 hours, followed by exchange for 25% sucrose. Coronal sections (40 μm) were cut by a microtome, and nuclei labeled with BrdU were detected by the following procedures. […]
Six sections were selected at intervals of 240 μm from the rostro caudal region of a granular cell layer in the whole dentate gyrus, and BrdU-NeuN double positive cells in the granular cell layer and subgranular zone (inside zone along the granular cell layer) were counted. […] The referential volume of the granular cell layer was calculated from the areas of the sampled sections.

The subject of experiment [3] is neural stem cells. As to the kind of experiment: Effect on proliferative activity of neural stem cells (BrdU incorporation). The class given is cell-based, rat. The following applies: 10 μM BrdU, cultivation for 24 hours under differentiation induction; n=6; P=0.02 vs control. The procedure:
In the same way as Experimental Example 1, neural stem cells were divided into DHA group and control (DHA free) group, and 10 μM 5-bromo-2′-droxyuridine (BrdU; Sigma) was added under culture conditions for differentiation induction, followed by cultivation for 24 hours. Thereafter, the cells were treated with 2N HCl at 37° C. for 10 minutes and treated with 0.1 M borate buffer (Na2B4O7, pH 8.5) for 5 minutes. The cell were treated with anti-mouse BrdU antibody (1:1000 Chemicon) and then treated with FITC-labeled secondary antibody.
7 random fields per well were sampled, and the numbers of BrdU-positive cells were counted to calculate a ratio of the number of BrdU-positive cells to the number of total cells. The number of total cells was counted by PI staining. Statistical analysis was evaluated by student's t-test.
On the technique in general: Uptake of a labelled nucleoside into DNA is a usual measure of proliferation.

Consider `CC/C=C\C/C=C\C/C=C\C/C=C\C/C=C\C/C=C\CCC(=O)O` [DHA, docosahexaenoic acid], for which, in experiment [1], the “ratio of the pycnotic cells to the number of total cells” value turned out to be 54.3±3.7%. The “number of BrdU-NeuN double positive cells in the whole granular cell layer of the dentate gyrus compared to the control group” value in experiment [2] (18-week-old Wister male rats) was determined as 1.6 fold. Also, the “average number of the BrdU-NeuN double positive cells in the respective sections” value in experiment [2] (n=3, P=0.005 vs control) was 878±72.3 cells. For the same compound, the “ratio of BrdU-positive cells to the number of total cells” value in experiment [3] was found to be 16.3±1.0%.
